# Laboratory results reported in patent US9963464B2, “Macrocyclic compounds” (Bayer Pharma Aktiengesellschaft, priority 2014, dated 2018).
# Like-named read-outs stand apart in the source and are kept apart here.
# Experiments:
# CDK2/CycE = target: T1, CDK2/CycE (Homo sapiens, UniProt P24941); experiment: CDK2/CycE kinase assay (TR-FRET, Method 2a); assay type: biochemical; details: 10 μM ATP
# T1 construct: GST; purchased ProQinase GmbH (Freiburg, Germany); host or cells: insect cells (Sf9)
# Text: 2a. CDK2/CycE Kinase Assay:
# CDK2/CycE-inhibitory activity of compounds of the present invention was quantified employing the CDK2/CycE TR-FRET assay as described in the following paragraphs:
# Recombinant fusion proteins of GST and human CDK2 and of GST and human CycE, expressed in insect cells (Sf9) and purified by Glutathion-Sepharose affinity chromatography, were purchased from ProQinase GmbH (Freiburg, Germany). As substrate for the kinase reaction biotinylated peptide biotin-Ttds-YISPLKSPYKISEG (C-terminus in amid form) was used which can be purchased e.g. from the company JERINI Peptide Technologies (Berlin, Germany).
# For the assay 50 nl of a 100 fold concentrated solution of the test compound in DMSO was pipetted into a black low volume 384 well microtiter plate (Greiner Bio-One, Frickenhausen, Germany), 2 μl of a solution of CDK2/CycE in aqueous assay buffer [50 mM Tris/HCl pH 8.0, 10 mM MgCl2, 1.0 mM dithiothreitol, 0.1 mM sodium ortho-vanadate, 0.01% (v/v) Nonidet-P40 (Sigma)] were added and the mixture was incubated for 15 min at 22° C. to allow pre-binding of the test compounds to the enzyme before the start of the kinase reaction. […] The concentration of CDK2/CycE was adjusted depending of the activity of the enzyme lot and was chosen appropriate to have the assay in the linear range, typical concentrations were in the range of 130 ng/mL. The reaction was stopped by the addition of 5 μl of a solution of TR-FRET detection reagents (0.2 μM streptavidine-XL665 [Cisbio Bioassays, Codolet, France] and 1 nM anti-RB(pSer807/pSer811)-antibody from BD Pharmingen [#558389] and 1.2 nM LANCE EU-W1024 labeled anti-mouse IgG antibody [Perkin-Elmer, product no. AD0077]) in an aqueous EDTA-solution (100 mM EDTA, 0.2% (w/v) bovine serum albumin in 100 mM HEPES pH 7.5).
# The resulting mixture was incubated 1 h at 22° C. to allow the formation of complex between the phosphorylated biotinylated peptide and the detection reagents. Subsequently the amount of phosphorylated substrate was evaluated by measurement of the resonance energy transfer from the Eu-chelate to the streptavidine-XL. Therefore, the fluorescence emissions at 620 nm and 665 nm after excitation at 350 nm was measured in a TR-FRET reader, e.g. a Rubystar (BMG Labtechnologies, Offenburg, Germany) or a Viewlux (Perkin-Elmer). The ratio of the emissions at 665 nm and at […] was taken as the measure for the amount of phosphorylated substrate. The data were normalised (enzyme reaction without inhibitor=0% inhibition, all other assay components but no enzyme=100% inhibition).
# HeLa-MaTu-ADR cells = experiment: Proliferation assay HeLa-MaTu-ADR; assay type: cell-based, human; details: 4 days, crystal violet, read-out: Inhibition of HeLa-MaTu-ADR cell proliferation IC50
# Experimental: Cultivated tumour cells (HeLa, human cervical tumour cells, ATCC CCL-2; NCI-H460, human non-small cell lung carcinoma cells, ATCC HTB-177; A2780, human ovarian carcinoma cells, ECACC #93112519; DU 145, hormone-independent human prostate carcinoma cells, ATCC HTB-81; HeLa-MaTu-ADR, multidrug-resistant human cervical carcinoma cells, EPO-GmbH Berlin; Caco-2, human colorectal carcinoma cells, ATCC HTB-37; B16F10, mouse melanoma cells, ATCC CRL-6475) were plated at a density of 5,000 cells/well (DU145, HeLa-MaTu-ADR), 3,000 cells/well (NCI-H460, HeLa), 2,500 cells/well (A2780), 1,500 cells/well (Caco-2), or 1,000 cells/well (B16F10) in a 96-well multititer plate in 200 μL of their respective growth medium supplemented 10% fetal calf serum. After 24 hours, the cells of one plate (zero-point plate) were stained with crystal violet (see below), while the medium of the other plates was replaced by fresh culture medium (200 μl), to which the test substances were added in various concentrations (0 μM, as well as in the range of 0.001-10 μM). The cells were incubated for 4 days in the presence of test substances. Cell proliferation was determined by staining the cells with crystal violet: the cells were fixed by adding 20 μl/measuring point of an 11% glutaric aldehyde solution for 15 minutes at room temperature. After three washing cycles of the fixed cells with water, the plates were dried at room temperature. The cells were stained by adding 100 μl/measuring point of a 0.1% crystal violet solution (pH 3.0). After three washing cycles of the stained cells with water, the plates were dried at room temperature. The dye was dissolved by adding 100 μl/measuring point of a 10% acetic acid solution. The extinction was determined by photometry at a wavelength of 595 nm. The change of cell number, in percent, was calculated by normalization of the measured values to the extinction values of the zero-point plate (=0%) and the extinction of the untreated (0 μm) cells (=100%). The IC50 values (inhibitory concentration at 50% of maximal effect) were determined by means of a 4 parameter fit. Non-adherent MOLM-13 human acute myeloid leukemia cells (DSMZ ACC 554) were seeded at a density of 5,000 cells/well in a 96-well multititer plate in 100 μL of growth medium supplemented 10% fetal calf serum. After 24 hours, cell viability of one plate (zero-point plate) was determined with the Cell Titre-Glo Luminescent Cell Viability Assay (Promega), while 50 μL of test compound containing medium was added to the wells of the other plates (final concentrations in the range of 0.001-1 μM and DMSO controls). Cell viability was assessed after 72-hour exposure with the Cell Titre-Glo Luminescent Cell Viability Assay (Promega). IC50 values (inhibitory concentration at 50% of maximal effect) were determined by means of a 4 parameter fit on measurement data which were normalized to vehicle (DMSO) treated cells (=100%) and measurement readings taken immediately before compound exposure (=0%).
Compound,IC50 (CDK2/CycE),"IC50 (HeLa-MaTu-ADR cells; Homo sapiens, 96 h)",IC50 (HeLa-MaTu-ADR cells)
"C[S+]([O-])Cc1cc2nc(c1)OCCOc1cc(F)ccc1-c1cc(ncc1F)N2 (racemic) [Example 10, (rac)-14,18-difluoro-7-[(methylsulfinyl)methyl]-2,3-dihydro-10H-9,5-(azeno)-11,15-(metheno)-1,4,10,12-benzodioxadiazacycloheptadecine]",415 nM,476 nM,
"CS(=N)(=O)Cc1cc2nc(c1)OCCCOc1cc(F)ccc1-c1cc(ncc1F)N2 (single isomer, unassigned; enantiomer 2) [Example 7, 15,19-Difluoro-8-[(S-methylsulfonimidoyl)methyl]-3,4-dihydro-2H,11H-10,6-(azeno)-12,16-(metheno)-1,5,11,13-benzodioxadiazacyclooctadecine; Enantiomer 2]",2.4 nM,,5 nM
"CS(=N)(=O)Cc1cc2nc(c1)OCCOc1cc(F)ccc1-c1cc(ncc1F)N2 (racemic) [Example 11, (rac)-14,18-difluoro-7-[(S-methylsulfonimidoyl)methyl]-2,3-dihydro-10H-9,5-(azeno)-11,15-(metheno)-1,4,10,12-benzodioxadiazacycloheptadecine]",180 nM,185 nM,
"CS(=N)(=O)Cc1cc2nc(c1)OCCCOc1cc(F)ccc1-c1cc(ncc1F)N2 (single isomer, unassigned; enantiomer 1) [Example 6, 15,19-Difluoro-8-[(S-methylsulfonimidoyl)methyl]-3,4-dihydro-2H,11H-10,6-(azeno)-12,16-(metheno)-1,5,11,13-benzodioxadiazacyclooctadecine; Enantiomer 1]",2.7 nM,5 nM,
"CSCc1cc2nc(c1)OCCCCOc1cc(F)ccc1-c1cc(ncc1F)N2 [Example 12, 16,20-Difluoro-9-[(methylsulfanyl)methyl]-2,3,4,5-tetrahydro-12H-11,7-(azeno)-13,17-(metheno)-1,6,12,14-benzodioxadiazacyclononadecine]",114 nM,207 nM,
"({[15,19-difluoro-3,4-dihydro-2H,11H-10,6-(azeno)-12,16-(metheno)-1,5,11,13-benzodioxadiazacyclooctadecin-8-yl]methyl}sulfonyl)acetic acid [Example 27]",2.3 nM,,1280 nM
"CSCc1cc2nc(c1)OCCCOc1cc(F)ccc1-c1cc(ncc1F)N2 [Example 3, 15,19-Difluoro-8-[(methylsulfanyl)methyl]-3,4-dihydro-2H,11H-10,6-(azeno)-12,16-(metheno)-1,5,11,13-benzodioxadiazacyclooctadecine]",41 nM,70 nM,
"CSCc1cc2cc(c1)OCCCOc1cc(F)ccc1-c1nc(ncc1F)N2 [Example 2, 15,19-Difluoro-8-[(methylsulfanyl)methyl]-3,4-dihydro-2H,11H-12,16-(azeno)-10,6-(metheno)-1,5,11,13-benzodioxadiazacyclooctadecine]",97.8 nM,77 nM,

# Now from value to compound, other results behind:
IC50 (CDK2/CycE),"IC50 (HeLa-MaTu-ADR cells; Homo sapiens, 96 h)",Compound,IC50 (HeLa-MaTu-ADR cells)
26 nM,14 nM,"CS(=N)(=O)Cc1cc2cc(c1)OCCCOc1cc(F)ccc1-c1nc(ncc1F)N2 (racemic) [Example 15, (rac)-15,19-difluoro-8-[(S-methylsulfonimidoyl)methyl]-3,4-dihydro-2H,11H-12,16-(azeno)-10,6-(metheno)-1,5,11,13-benzodioxadiazacyclooctadecine]",
5.6 nM,32 nM,"CS(=O)(Cc1cc2nc(c1)OCCCOc1cc(F)ccc1-c1cc(ncc1F)N2)=NC(=O)OCCN (racemic) [Example 25, (rac)-2-aminoethyl [{[15,19-difluoro-3,4-dihydro-2H,11H-10,6-(azeno)-12,16-(metheno)-1,5,11,13-benzodioxadiazacyclooctadecin-8-yl]methyl}(methyl)oxido-λ^6-sulfanylidene]carbamate]",
58.2 nM,12 nM,"CS(=O)(Cc1cc2cc(c1)OCCCOc1cc(F)ccc1-c1nc(ncc1F)N2)=NC(=O)C(F)(F)F (racemic) [Example 16, (rac)-N-[{[15,19-difluoro-3,4-dihydro-2H,11H-12,16-(azeno)-10,6-(metheno)-1,5,11,13-benzodioxadiazacyclooctadecin-8-yl]methyl}(methyl)oxido-λ^6-sulfanylidene]-2,2,2-trifluoroacetamide]",
5.6 nM,25 nM,"CCNC(=O)N=S(C)(=O)Cc1cc2nc(c1)OCCCOc1cc(F)ccc1-c1cc(ncc1F)N2 (racemic) [Example 17, (rac)-1-[{[15,19-difluoro-3,4-dihydro-2H,11H-10,6-(azeno)-12,16-(metheno)-1,5,11,13-benzodioxadiazacyclooctadecin-8-yl]methyl}(methyl)oxido-λ^6-sulfanylidene]-3-ethylurea]",
